Laboratory results from US20250382556A1, “MODULATION OF THE BRANCHED-CHAIN METABOLITE CONTENT OF FRUITS AND VEGETABLES” (BOARD OF TRUSTEES OF MICHIGAN STATE UNIVERSITY, priority 2024, published 2025).

Tests used:
[1] = tested on: ripe ‘Red Delicious’ apple fruit; test: Precursor (isoleucine, α-ketoacid) content of ripe apple peel via derivatization and GCMS, time course; type: in vivo, Malus x domestica Borkh.; conditions: 1 mM rimsulfuron
Description: (§1) ‘Red Delicious’ apple fruit held in refrigerated air for 5 months (see above) plus 1 day at 22° C. and at an advanced ripeness stage (‘ripe’) were treated with rimsulfuron (1 mM) with 0.2% Tween 20 on day 0 of the study and for the next three consecutive days as above described. The fruit were evaluated daily for volatile emissions (see below) for eight days. On days 0, 2, 4, and 7, representative treated and untreated fruit were selected for tissue collection for metabolite analysis (see below). On day 7, samples of fruit peel were fed, as described above, with water or 20 mM isoleucine or α-keto-β-methylvalerate.
To simultaneously quantify branched-chain α-ketoacids and amino acids, 100 mg of ground frozen tissue was extracted in 2 mL of 1:1 acetonitrile: water containing 13 μM U-^13C, ^15N labeled amino acids (MilliporeSigma) as internal standard for 15 min in a 65° C. water bath. […]
One microliter of derivatized sample was analyzed with a GC (Agilent 6890) coupled to a time-of-flight MS (Pegasus II, LECO). […]
Compounds were identified by retention time and spectra of derivatized authenticated standards. Quantification was performed by comparison of the ratios of peak areas of metabolites to labeled internal standards. […] Calibration standards consisted of equimolar mixtures of the analyzed compounds that mimicked 15-0.15 nmoles of analyte in the final derivatized sample. […]

apple peel tissues = test: Labeled (1,2-13C2) acetate and methanol feeding of excised apple peel; set-up: species or system Malus x domestica Borkh.; conditions: for reduction of methyl 2-methylbutanoate content: 1 mM rimsulfuron
Description: Acetate feedings were likewise performed with excised peel tissues in 22-mL glass vials and 20 μL of treatment solution. ‘Gala’ fruit were fed with 10 mM methanol, 10 mM acetate (unlabeled or 1,2-^13C2) pH 7 balanced with KOH, 0.05% Tween 20, and 0.5 mM rimsulfuron if appropriate. These concentrations were doubled for ‘Empire’ and ‘Jonagold’ fruit.
Headspace volatiles from small tissue samples incubated in 22 mL vials were adsorbed for 30 s using a solid-phase micro extraction (SPME) fiber (65 μm PDMS-DVB; Supelco Analytical). The SPME fiber was then directly desorbed for 1 min in the injection port of a gas chromatograph (GC; HP-6890, Hewlett-Packard) coupled to a time-of-flight mass spectrometer (MS; Pegasus II, LECO). Whole fruits and banana slices were incubated for 20 min at room temperature (22° C.) in 1-L sealed Teflon jars before a 15-s, or 3-min adsorption and 1- or 2-min desorption. Adsorption times were adjusted to ensure instrument responses were in the linear range. All desorbed volatiles were cryofocused at the beginning of the column by immersing said region of the column in liquid nitrogen. After the desorption period, the run was initiated and the liquid nitrogen removed.
The conditions of the system were as follows. Injection port: 200° C., splitless, ultra-purified helium (99.999%) carrier gas, front inlet flow 1.5 mL·min^−1 constant, 10 mL·min^−1 purge flow, 11.5 mL·min^−1 total flow. Oven: initial temperature 40° C. for 0 min, ramped by 43° C.·min^−1 to 185° C. for 0 min. Column: HP-5 MS, 30 m×0.25 mm i.d., 0.25 μm film thickness (Agilent). Transfer line temperature 225° C. MS: Electron ionization (−70 eV), ion source temperature 200° C., solvent delay 50 sec, m/z range 29 to 400, detector voltage 1500 V, data collection rate 20 Hz.

apple fruit peel = test: Complementation of inhibitor-treated apple peel with branched-chain precursors; set-up: species or system Malus x domestica Borkh.
Description: α-Ketoacids (2-oxo acids) were fed to ‘Empire’ and ‘Jonagold’ fruit by preparing vials of excised peel tissue discs in 22-mL glass vials using 20 μL of treatment solution on the prepared paper-peel disc units. Treatment solution contained 20 mM methanol, 0.1% Tween 20, 20 mM of α-keto-β-methylvalerate (3-methyl-2-oxopentanoate), α-ketoisovalerate (3-methyl-2-oxobutanoate), or α-ketoisocaproate (4-methyl-2-oxopentanoate), and when appropriate, 1 mM rimsulfuron.
as §1
Headspace volatiles from small tissue samples incubated in 22 mL vials were adsorbed for 30 s using a solid-phase micro extraction (SPME) fiber (65 μm PDMS-DVB; Supelco Analytical). […]

CCS(=O)(=O)c1cccnc1S(=O)(=O)NC(=O)Nc1nc(OC)cc(OC)n1 [rimsulfuron, N-((4,6-dimethoxypyrimidin-2-yl)aminocarbonyl)-3-(ethylsulfonyl)-2-pyridinesulfonamide]
isoleucine content, plateau, of control levels [1]: 29.1% | α-keto-β-methylvalerate content, plateau, of control levels [1]: 51.1% | M+1 and M+2 methyl pentanoate isotopologs collectively more enriched after treatment (apple peel tissues; Empire and Jonagold, on average, 1,2-13C2 acetate): 4.28 fold | reduction of methyl 2-methylbutanoate content (apple peel tissues; Empire peel fed methanol and acetate): 99.4% | reduction of methyl 2-methylbutanoate content (apple peel tissues; Jonagold peel fed methanol and acetate): 100% | enrichment of M+1 isotopolog of methyl hexanoate (apple peel tissues; Jonagold, 1,2-13C2 acetate): slightly more enrichment than controls | ester production after feeding isoleucine or α-keto-β-methylvalerate to inhibitor-treated peels (apple fruit peel; ripe Red Delicious, 20 mM precursor on day 7): recovery of anteiso-branched-chain esters | 2-methylbutyl and 2-methylbutanoate esters after exogenous feeding of α-keto-β-methylvalerate to inhibitor-treated fruit (apple fruit peel; ripening Jonagold and Empire, 20 mM α-ketoacid): at least a partial rescue
